Measured values: PMC7316994, “In Vitro Pharmacological Profile of a New Small Molecule Bradykinin B2 Receptor Antagonist” (Frontiers in Pharmacology, 2020)

Experiments:
[1] = target: T1, B2 receptor (Homo sapiens, UniProt P30411); assay: reversibility of antagonism after washout, umbilical vein; settings: for EC50: BK EC50 (nM)
T1 sequence (P30411 1-391): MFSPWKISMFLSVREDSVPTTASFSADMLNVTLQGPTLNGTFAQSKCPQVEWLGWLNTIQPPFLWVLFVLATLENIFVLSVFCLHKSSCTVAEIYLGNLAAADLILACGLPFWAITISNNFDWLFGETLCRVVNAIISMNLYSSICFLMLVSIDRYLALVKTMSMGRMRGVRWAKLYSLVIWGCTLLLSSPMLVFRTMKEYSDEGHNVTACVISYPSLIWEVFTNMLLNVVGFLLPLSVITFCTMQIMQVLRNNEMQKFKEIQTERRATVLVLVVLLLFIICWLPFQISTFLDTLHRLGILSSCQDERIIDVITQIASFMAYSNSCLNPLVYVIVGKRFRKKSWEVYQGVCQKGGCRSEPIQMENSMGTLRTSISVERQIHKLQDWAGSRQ

[2] = target: T2, Melanocortin MC3 (Homo sapiens, UniProt P41968); assay: radioligand binding (Table S2); settings: [125I] NDP-α-MSH, Human recombinant CHO cells
T2 construct: host or cells: CHO cells

[3] = target: T3, Neuropeptide Y2 (Homo sapiens, UniProt P49146); assay: radioligand binding (Table S2); settings: [125I] Peptide YY, KAN-TYS cells
T3 construct: KAN-TYS cells; host or cells: KAN-TYS cells

[4] = target: T4, Opioid µ (MOP) (Homo sapiens, UniProt P35372); assay: radioligand binding (Table S2); settings: [3H] DAMGO, Human recombinant HEK-293 cells
T4 construct: host or cells: HEK-293 cells

[5] = target: PKCα (Homo sapiens, UniProt P17252); assay: enzyme assay (Table S2); format: biochemical; settings: HTRF
[6] = target: T5, Corticotropin-releasing factor CRF1 (Homo sapiens, UniProt P34998); assay: functional assay, cAMP HTRF, CHO cells (Table S2); format: cell-based
T5 construct: expressed in transfected cells; host or cells: CHO cells
T5 sequence (P34998 24-415): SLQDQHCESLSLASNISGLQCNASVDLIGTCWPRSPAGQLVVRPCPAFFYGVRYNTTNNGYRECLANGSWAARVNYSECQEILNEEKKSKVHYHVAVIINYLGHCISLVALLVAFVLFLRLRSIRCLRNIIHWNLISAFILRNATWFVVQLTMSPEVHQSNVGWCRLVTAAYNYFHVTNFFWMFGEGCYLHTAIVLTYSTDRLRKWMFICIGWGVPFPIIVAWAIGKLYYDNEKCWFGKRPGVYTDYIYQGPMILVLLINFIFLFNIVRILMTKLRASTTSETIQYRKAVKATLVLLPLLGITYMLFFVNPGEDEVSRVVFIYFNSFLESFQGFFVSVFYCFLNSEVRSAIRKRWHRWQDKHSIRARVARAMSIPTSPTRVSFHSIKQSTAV

T3 sequence (P49146 whole entry): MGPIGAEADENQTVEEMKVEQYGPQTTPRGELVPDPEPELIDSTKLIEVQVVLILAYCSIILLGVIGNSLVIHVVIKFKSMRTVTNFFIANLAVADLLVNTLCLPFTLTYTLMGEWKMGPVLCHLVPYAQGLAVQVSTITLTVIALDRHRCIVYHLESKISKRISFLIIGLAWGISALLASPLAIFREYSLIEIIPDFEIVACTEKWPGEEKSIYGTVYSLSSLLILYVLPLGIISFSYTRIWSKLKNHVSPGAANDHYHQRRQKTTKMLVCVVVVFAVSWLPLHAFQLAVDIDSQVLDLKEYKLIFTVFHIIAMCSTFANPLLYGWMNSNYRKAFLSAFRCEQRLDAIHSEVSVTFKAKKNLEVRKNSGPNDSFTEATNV
T2 sequence (P41968 whole entry): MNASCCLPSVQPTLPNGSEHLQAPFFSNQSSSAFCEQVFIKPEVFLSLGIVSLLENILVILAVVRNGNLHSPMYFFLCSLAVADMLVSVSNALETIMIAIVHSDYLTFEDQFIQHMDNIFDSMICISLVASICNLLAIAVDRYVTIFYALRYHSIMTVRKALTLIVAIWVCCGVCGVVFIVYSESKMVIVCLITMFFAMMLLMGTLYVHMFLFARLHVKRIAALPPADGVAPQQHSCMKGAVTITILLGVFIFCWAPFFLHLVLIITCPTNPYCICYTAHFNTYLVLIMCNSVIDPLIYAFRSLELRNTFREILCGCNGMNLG
T4 sequence (P35372 whole entry): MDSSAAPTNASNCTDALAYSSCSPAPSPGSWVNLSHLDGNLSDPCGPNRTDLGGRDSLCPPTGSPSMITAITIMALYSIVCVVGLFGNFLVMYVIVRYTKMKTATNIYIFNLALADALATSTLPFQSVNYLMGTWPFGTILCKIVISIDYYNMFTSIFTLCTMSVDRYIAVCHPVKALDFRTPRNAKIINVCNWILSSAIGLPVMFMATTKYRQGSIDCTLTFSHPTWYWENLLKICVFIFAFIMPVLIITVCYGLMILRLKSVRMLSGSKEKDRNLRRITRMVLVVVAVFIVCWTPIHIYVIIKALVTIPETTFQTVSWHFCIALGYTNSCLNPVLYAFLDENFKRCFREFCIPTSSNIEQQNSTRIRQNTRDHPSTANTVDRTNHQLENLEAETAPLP

Cc1cc(-c2ncnn2C)c2cccc(OCc3c(Cl)cc(F)cc3[C@H](C)NC(=O)COC(F)F)c2n1 [Compound 3, (S)-N-(1-(3-chloro-5-fluoro-2-((2-methyl-4-(1-methyl-1H-1,2,4-triazol-5-yl)quinolin-8-yloxy)methyl)phenyl)ethyl)-2-(difluoromethoxy)acetamide]
reversibility of antagonism after washout ([1]; 100 nM): partial or slow reversibility
reversibility of antagonism after washout ([1]; 1 and 10 nM): fully reversible
EC50 ([1]; after washout, 5 h, washout after Compound 3 1 nM, 5 h, vehicle washout 20.8 nM): 22 nM
EC50 ([1]; after washout, 5 h, washout after Compound 3 10 nM, 5 h, vehicle washout 20.8 nM): 38.5 nM
EC50 ([1]; after washout, 5 h, washout after Compound 3 100 nM, 5 h, vehicle washout 11.7 nM): 84.1 nM
EC50 ([1]; antagonist present, 3 h, Compound 3 1 nM, vehicle 3 h 18.7 nM): 67.4 nM
EC50 ([1]; antagonist present, 3 h, Compound 3 10 nM, vehicle 3 h 18.7 nM): 225 nM
EC50 ([1]; antagonist present, 3 h, Compound 3 100 nM, vehicle 3 h 7.5 nM): 713 nM
inhibition at 10 µM [2]: -8.2%
inhibition at 10 µM [3]: -19.1%
inhibition at 10 µM [4]: 13.6%
inhibition at 10 µM [5]: 1.4%
% of reference agonist response @ 10 µM (agonist effect) ([6]; 10 µM, reference ovine CRF (1 µM)): -2.7%
inhibition at 10 µM ([6]; CHO, read-out: % inhibition of reference agonist response @ 10 µM (antagonist effect), 10 µM, Ovine CRF (10 nM)): 55.7%
IC50 ([6]; Ovine CRF (10 nM), read-out: IC50 (µM), functional antagonism): 10 µM
Kb ([6]; Ovine CRF (10 nM), read-out: Kb (µM), functional antagonism): 3.6 µM
